ChEMBL document CHEMBL1671851, “Population pharmacokinetics of rifampin in pulmonary tuberculosis patients, including a semimechanistic model to describe variable absorption” (Antimicrob Agents Chemother, 2008)

Experiments:
Homo sapiens [1] = assay: AUC (0 to 24 hrs) in indonesian pulmonary tuberculosis patient at 600 mg/day, po; format: ADME, organism-based, Plasma; parameters: time < 24 hr, dose 600 mg/day, route oral; conditions: in vivo
Homo sapiens [2] = assay: AUC (0 to 24 hrs) in indonesian pulmonary tuberculosis patient at 450 mg/day, po; format: ADME, organism-based, Plasma; parameters: dose 450 mg/day, time < 24 hr, route oral; conditions: in vivo
Homo sapiens [3] = species: Homo sapiens; assay: Absorption rate constant in pulmonary tuberculosis patient in first order model; format: ADME, organism-based; conditions: in vivo
[4] = Apparent volume of distribution in pulmonary tuberculosis patient in first order model; format: ADME, organism-based; conditions: human, in vivo; read-out: Vz
[5] = Apparent oral clearance in pulmonary tuberculosis patient in first order and lag time model; format: ADME, organism-based; conditions: human, in vivo
Homo sapiens [6] = species: Homo sapiens; assay: Absorption rate constant in pulmonary tuberculosis patient in first order and lag time model; format: ADME, organism-based; conditions: in vivo
Homo sapiens [7] = assay: AUC (0 to 24 hrs) in south african pulmonary tuberculosis patient with body weight <=50 kg at 450 mg/day, po; format: ADME, organism-based, Plasma; parameters: time < 24 hr, dose 450 mg/day, route oral; conditions: in vivo
[8] = Apparent oral clearance in pulmonary tuberculosis patient in transit compartment model; format: ADME, organism-based; conditions: human, in vivo
Homo sapiens [9] = assay: AUC (0 to 12 hrs) in kenyan pulmonary tuberculosis patient coinjected with HIV with body weight <=45 kg at 450 mg/day, po; format: ADME, organism-based, Plasma; parameters: time < 12 hr, dose 450 mg/day, route oral; conditions: in vivo
Homo sapiens [10] = assay: AUC (0 to 10 hrs) in north american pulmonary tuberculosis patient coinjected with HIV with body weight >50 kg at 600 mg/day, po; format: ADME, organism-based, Plasma; parameters: time < 10 hr, dose 600 mg/day, route oral; conditions: in vivo
[11] = Apparent oral clearance in pulmonary tuberculosis patient in Sequential 0 order and first order model; format: ADME, organism-based; conditions: human, in vivo
Homo sapiens [12] = assay: AUC (0 to 12 hrs) in german pulmonary tuberculosis patient at 600 mg/day, po; format: ADME, organism-based, Plasma; parameters: dose 600 mg/day, time < 12 hr, route oral; conditions: in vivo
Homo sapiens [13] = assay: AUC (0 to infinity) in indian pulmonary tuberculosis patient at 450 mg/day, po; format: ADME, organism-based, Plasma; parameters: dose 450 mg/day, route oral, time infinity; conditions: in vivo
Homo sapiens [14] = assay: AUC (0 to infinity) in indian pulmonary tuberculosis patient coinjected with HIV at 450 mg/day, po; format: ADME, organism-based, Plasma; parameters: dose 450 mg/day, time infinity, route oral; conditions: in vivo
[15] = Apparent volume of distribution in pulmonary tuberculosis patient in Sequential 0 order and first order model; format: ADME, organism-based; conditions: human, in vivo; read-out: Vz
[16] = Apparent volume of distribution in pulmonary tuberculosis patient in first order and lag time model; format: ADME, organism-based; conditions: human, in vivo; read-out: Vz
[17] = Apparent oral clearance in pulmonary tuberculosis patient in first order model; format: ADME, organism-based; conditions: human, in vivo
Homo sapiens [18] = assay: AUC (0 to 24 hrs) in south african pulmonary tuberculosis patient with body weight >50 kg at 600 mg/day, po; format: ADME, organism-based, Plasma; parameters: time < 24 hr, dose 600 mg/day, route oral; conditions: in vivo
Homo sapiens [19] = species: Homo sapiens; assay: Absorption rate constant in pulmonary tuberculosis patient in transit compartment model; format: ADME, organism-based; conditions: in vivo
Homo sapiens [20] = species: Homo sapiens; assay: Absorption rate constant in pulmonary tuberculosis patient in Sequential 0 order and first order model; format: ADME, organism-based; conditions: in vivo
Homo sapiens [21] = assay: AUC (0 to 12 hrs) in kenyan pulmonary tuberculosis patient with body weight <=45 kg at 450 mg/day, po; format: ADME, organism-based, Plasma; parameters: time < 12 hr, dose 450 mg/day, route oral; conditions: in vivo
Homo sapiens [22] = assay: AUC (0 to 10 hrs) in north american pulmonary tuberculosis patient coinjected with HIV with body weight <=50 kg at 450 mg/day, po; format: ADME, organism-based, Plasma; parameters: time < 10 hr, dose 450 mg/day, route oral; conditions: in vivo
Homo sapiens [23] = species: Homo sapiens; assay: Mean transient time in pulmonary tuberculosis patient in transit compartment model; format: ADME, organism-based; conditions: in vivo
Homo sapiens [24] = assay: AUC (0 to 12 hrs) in kenyan pulmonary tuberculosis patient coinjected with HIV with body weight >45 kg at 600 mg/day, po; format: ADME, organism-based, Plasma; parameters: time < 12 hr, dose 600 mg/day, route oral; conditions: in vivo
[25] = Apparent volume of distribution in pulmonary tuberculosis patient in transit compartment model; format: ADME, organism-based; conditions: human, in vivo; read-out: Vz
Homo sapiens [26] = assay: AUC (0 to 12 hrs) in kenyan pulmonary tuberculosis patient with body weight >45 kg at 600 mg/day, po; format: ADME, organism-based, Plasma; parameters: dose 600 mg/day, time < 12 hr, route oral; conditions: in vivo

CO[C@H]1/C=C/O[C@@]2(C)Oc3c(C)c(O)c4c(O)c(c(/C=N/N5CCN(C)CC5)c(O)c4c3C2=O)NC(=O)/C(C)=C\C=C\[C@H](C)[C@H](O)[C@@H](C)[C@@H](O)[C@@H](C)[C@H](OC(C)=O)[C@@H]1C [RIFAMPIN]
AUC (Homo sapiens [1]): 79.7 mg·h/L
AUC (Homo sapiens [2]): 48.5 mg·h/L
Ka (Homo sapiens [3]): 1.61 L/h
Vd [4]: 52.8 L
CL/F [5]: 337 mL/min
Ka (Homo sapiens [6]): 1.64 L/h
AUC (Homo sapiens [7]): 30.7 mg·h/L
CL/F [8]: 320 mL/min
AUC (Homo sapiens [9]): 19.6 mg·h/L
AUC (Homo sapiens [10]): 30.1 mg·h/L
CL/F [11]: 320 mL/min
AUC (Homo sapiens [12]): 60.3 mg·h/L
AUC (Homo sapiens [13]): 44.6 mg·h/L
AUC (Homo sapiens [14]): 28.2 mg·h/L
Vd [15]: 51.5 L
Vd [16]: 53.4 L
CL/F [17]: 323 mL/min
AUC (Homo sapiens [18]): 30.7 mg·h/L
Ka (Homo sapiens [19]): 1.15 L/h
Ka (Homo sapiens [20]): 1.23 L/h
AUC (Homo sapiens [21]): 23.1 mg·h/L
AUC (Homo sapiens [22]): 30.1 mg·h/L
MTT (Homo sapiens [23]): 0.424 h
AUC (Homo sapiens [24]): 19.6 mg·h/L
Vd [25]: 53.2 L
AUC (Homo sapiens [26]): 23.1 mg·h/L
